Results: US20100204149A1, “USE OF OCTREOTIDE AS A THERAPEUTIC AGENT” (priority 2007, published 2010)

Key:
Human A549 cells [1] = test: Propidium iodide cell cycle assay; assay type: cell-based; conditions: peptide 10 micrograms per ml, 24 hours
Description: Human A549 cells (carcinomic human alveolar basal epithelial cells) were utilized in the experiments employing the Propidium iodide cell cycle assay. The eukaryotic cell cycle is a series of events that take place in a cell leading to its replication. The regulation of the cell cycle involves steps crucial to the cell, including detecting and repairing genetic damage, and provision of various checks to prevent uncontrolled cell division. The molecular events that control the cell cycle are ordered and directional; that is, each process occurs in a sequential fashion. The cell cycle consists of four distinct phases: G1 phase, S phase, G2 phase (collectively known as interphase) and M phase. M phase is itself composed of two tightly coupled processes: mitosis, in which the cell's chromosomes are divided between the two daughter cells, and cytokinesis, in which the cell's cytoplasm divides forming distinct cells. Activation of each phase is dependent on the proper progression and completion of the previous one. Cells that have temporarily or reversibly stopped dividing are said to have entered a state of quiescence called Go phase. The relatively brief M phase consists of nuclear division and cytoplasmic division. The first phase within interphase, from the end of the previous M phase till the beginning of DNA synthesis is called G1 (G indicating gap or growth). During this phase the biosynthetic activities of the cell resume at a high rate. This phase is marked by synthesis of various enzymes that are required in S phase, mainly those needed for DNA replication. The ensuing S phase starts when DNA synthesis commences; when it is complete, all of the chromosomes have been replicated. The cell then enters the G2 phase, which lasts until the cell enters mitosis. Significant protein synthesis occurs during this phase, mainly involving the production of microtubules, which are required during the process of mitosis. […]
Propidium iodide is an intercalating agent and a fluorescent molecule that can be used to stain DNA. […] After incubation for 40 min at 37° C., cells were analyzed in the FACS.

HUVEC = test: Endothelial tube formation assay; assay type: cell-based, human; conditions: peptide 10 micrograms per ml, 20 hours
Procedure: The endothelial tube formation assay is based on the ability of endothelial cells to form three-dimensional capillary-like tubular structures when cultured on a gel of basement membrane extract. The endothelial tube formation assay represents a powerful model for studying inhibition and induction of angiogenesis. Pre-labeled HUVEC with Calcein AM were seeded in a 96-well culture plate coated with extracellular metrix (Chemicon international Cat. ECM625) and treated with test peptide—10 micrograms per ml—in full growth medium. […] control was vehicle only. The endothelial cells were allowed to form tubes for 20 hours and were then examined under an inverted fluorescent microscope. Duplicate wells for each treatment were photographed and quantitatively analyzed for an average tubule length using image analysis software ImageProPlus. Raw data were expressed as average tubule lengths in pixels ±standard deviation. Statistic p values were computed using the Student's t-test.

RAW 264.7 cells = test: Phagocytosis assay with Fluorescein-labeled Escherichia coli; assay type: cell-based, mouse; conditions: peptide 10 micrograms per ml
Procedure: RAW 264.7 (Mouse leukaemic monocyte macrophage cell line) cells were obtained from ATCC and grown in RPMI 1640 medium containing 10% FBS. Cells were incubated in 12×75 mm tubes at 37° C. with test peptide—10 micrograms per ml—for 30 min prior to adding Fluorescein-labeled Escherichia coli bacteria as the agent to be ingested. After the cells were incubated for additional 60 min at 37° C. and allowed to ingest the Fluorescein-labeled Escherichia coli bacteria, cells were fixed with 1% paraformaldehyde. The samples were then analyzed by flow cytometry to determine the amount of phagocytosis as a function of brightness (the greater the phagocytic activity, the more fluorescence in the macrophage population). Data are reported as % positive and the mean fluorescence intensity (MFI) of positively stained cells.

Human A549 cells [2] = test: Apoptosis induction assay (Annexin-5); assay type: cell-based; conditions: peptide 10 micrograms per ml, 24 hours
Description: Human A549 cells (carcinomic human alveolar basal epithelial cells) were utilized in the experiments employing the Annexin-5 apoptosis assay. Annexin-5 is a member of a highly conserved protein family that binds acidic phospholipids in a calcium-dependent manner. […] Phosphatidylserine is translocated from the inner side of the plasma membrane to the outer layer when cells undergo death by apoptosis or cell necrosis and serves as a signal by which cell destined for death are recognized by phagocytes. Test peptide—10 micrograms per ml—were exposed for 24 hours to the A549 cells before they were analyzed for signs of apoptosis.

[3] = Cytotoxicity testing in MRC-5 cells (CellTiter 96); assay type: cell-based; conditions: human, MRC-5 cells (embryonal lung fibroblasts); MRC-5 cells; 6 days incubation; read-out: % Cell viability
Procedure: For cytotoxicity testing, MRC-5 cells were seeded at 2,500 cells/well in 96 well plates using growth medium. […] The following day, peptide was added and tested in duplicates. After a 6 days incubation period, cell viability was measured using CellTiter 96 Solution (Promega). Plates were incubated for additional 4 hours at 37° C.

[4] = system: Primary Human endothelial cells (HUVEC); test: Endothelial cell migration assay; assay type: cell-based; conditions: peptide 10 micrograms per ml, 22 hours
Procedure: Endothelial cell migration is a prerequisite for the process of neo-vascularization or angiogenesis which is crucial for on-site recruitment of blood vessel formation. Primary Human endothelial cells (HUVEC) were seeded in insert chambers with 3 micrometer pore size of multi-transwell plate for 6 hours at 37° C. in Endothelial Cell Basal Medium (EBM) supplemented with 0.1% bovine serum albumin. Thereafter, designated concentration of test peptide—10 micrograms per ml—was added in duplicate wells. The endothelia were allowed to migrate for 22 hours at 37° C., then, migrated cells were fixed and stained with Hoechst 33342 dye. Images of 3 fields per insert were taken and the number of migrated cells per field were quantified using the ImageProPlus software. Data were analyzed for the average number of the migrated cells and standard deviation of six data points for each treatment condition. Active test peptide against HUVEC migration was determined based on 50% inhibition of migrated cells as compared with the control. Statistic p values were computed using the Student's t-test.

C[C@@H](O)[C@@H]1NC(=O)[C@H](CCCCN)NC(=O)[C@@H](Cc2c[nH]c3ccccc23)NC(=O)[C@H](Cc2ccccc2)NC(=O)[C@@H](NC(=O)[C@H](N)Cc2ccccc2)CSSC[C@@H](C(=O)N[C@H](CO)[C@@H](C)O)NC1=O [Octreotide, H-D-Phe-Cys-Phe-D-Trp-Lys-Thr-Cys-L-threoninol]
Cell cycle analysis G0/G1 (Human A549 cells [1]): 59.1 | Cell cycle analysis G2/M (Human A549 cells [1]): 9.2 | Cell cycle analysis S (Human A549 cells [1]): 31.8 | % inhibition of tube formation (HUVEC): 8% | % of control phagocytosis (RAW 264.7 cells): 105.9% | % of induction (Human A549 cells [2]): 2.6% | viability at 144 h [3]: 100% | % inhibition of migration [4]: −24%
